Converted amounts (≈) assume the structure as drawn. The source made the active and inactive calls. The calls are words filed in the database; no cut-off is given here.
Experiments:
Mus musculus [1] = test: Antiinflammatory activity in C57BL/6J mouse model of ovalbumin/Aspergillus-induced allergic asthma assessed as reduction in eosinophil counts in BALF at 10 mg/kg, ip administered 30 mins prior to allergen challenge and measured after 16 days; assay type: functional, organism-based; settings: time 16.0 day
Mus musculus [2] = test: Reversal of CCI-induced mechano-allodynia in Hsd:ICR (CD-1) mouse model of neuropathic pain at 10 micromol/kg, ip measured after 5 hrs; assay type: functional, organism-based; settings: dose 10.0 µmol/kg
Mus musculus [3] = test: Antiinflammatory activity in C57BL/6J mouse model of ovalbumin/Aspergillus-induced allergic asthma assessed as reduction in macrophage counts in BALF at 10 mg/kg, ip administered 30 mins prior to allergen challenge and measured after 16 days; assay type: functional, organism-based; settings: time 16.0 day
Mus musculus [4] = test: Antiinflammatory activity in C57BL/6J mouse model of ovalbumin/Aspergillus-induced allergic asthma assessed as reduction in allergic inflammation at 10 mg/kg, ip administered 30 mins prior to allergen challenge and measured after 16 days; assay type: functional, organism-based; settings: time 16.0 day
Mus musculus [5] = test: Reversal of CCI-induced mechano-allodynia in Hsd:ICR (CD-1) mouse model of neuropathic pain at 10 micromol/kg, ip measured after 3 hrs; assay type: functional, organism-based; settings: dose 10.0 µmol/kg
Mus musculus [6] = test: Antiinflammatory activity in C57BL/6J mouse model of ovalbumin/Aspergillus-induced allergic asthma assessed as reduction in neutrophil counts in BALF at 10 mg/kg, ip administered 30 mins prior to allergen challenge and measured after 16 days; assay type: functional, organism-based; settings: time 16.0 day
Mus musculus [7] = test: Antiinflammatory activity in C57BL/6J mouse model of ovalbumin/Aspergillus-induced allergic asthma assessed as reduction in recruitment of immune cells into lungs at 10 mg/kg, ip administered 30 mins prior to allergen challenge and measured after 16 days; assay type: functional, organism-based; settings: time 16.0 day
[8] = Stability in mouse liver microsomes assessed as half life; assay type: ADME, Microsome
HepG2 = test: Cytotoxicity against human HepG2 cells; assay type: toxicity, cell-based
[9] = Stability in human liver microsomes assessed as half life; assay type: ADME, Microsome
[10] = Stability of the compound in simulated intestinal fluid assessed as parent compound remaining at 120 mins; assay type: ADME; settings: simulated gi fluid, 2 h
[11] = Plasma protein binding in human assessed as bound fraction; assay type: ADME, cell-free
[12] = Half life in Wistar rat at 1 mg/kg, ip; assay type: ADME, organism-based; settings: in vivo
[13] = target: Sigma intracellular receptor 2 (Homo sapiens, UniProt Q5BJF2); test: Inhibition of sigma 2 receptor (unknown origin) assessed as binding constant
Chain of Sigma intracellular receptor 2 (Q5BJF2 whole entry): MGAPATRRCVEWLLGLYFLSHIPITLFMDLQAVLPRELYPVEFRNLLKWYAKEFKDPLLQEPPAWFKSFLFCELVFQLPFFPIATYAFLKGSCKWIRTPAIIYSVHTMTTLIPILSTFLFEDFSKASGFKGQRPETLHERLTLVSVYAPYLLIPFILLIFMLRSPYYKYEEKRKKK

[14] = Stability in rat plasma assessed as compound remaining after 120 mins; assay type: ADME, cell-free; settings: 2 h
[15] = Stability in mouse plasma assessed as compound remaining after 120 mins; assay type: ADME, cell-free; settings: 2 h
[16] = Plasma protein binding in mouse assessed as bound fraction; assay type: ADME, cell-free
[17] = Stability in rat liver microsomes assessed as half life; assay type: ADME, Microsome
[18] = Plasma protein binding in rat assessed as bound fraction; assay type: ADME, cell-free
[19] = Half life in Wistar rat at 0.5 mg/kg, iv; assay type: ADME, organism-based; settings: in vivo
[20] = Stability of the compound in simulated gastric fluid assessed as parent compound remaining at 120 mins by NMR analysis; assay type: ADME; settings: simulated gi fluid, 2 h
[21] = Prodrug conversion in aqueous medium at pH 7.4 assessed as conversion of 4-(4-((1S,4S,5S)-2-(Ethoxycarbonyl)-2-azabicyclo[2.2.1]heptan-5-yl)phenyl)-7-(4-(trifluoro-methyl)phenyl)-2-naphthoic acid at 72 hrs by HPLC analysis; assay type: ADME; settings: buffer, pH 7.4, 72 h
[22] = Plasma protein binding in mouse assessed as compound remaining at 5 hrs; assay type: ADME, cell-free
liver carboxylesterase = target: T1, liver carboxylesterase (Sus scrofa, UniProt Q29550); test: Stability of the compound in aqueous medium at pH 7.4 assessed as half life in presence of porcine liver esterase; assay type: physicochemical; settings: pig
T1 sequence (Q29550 whole entry): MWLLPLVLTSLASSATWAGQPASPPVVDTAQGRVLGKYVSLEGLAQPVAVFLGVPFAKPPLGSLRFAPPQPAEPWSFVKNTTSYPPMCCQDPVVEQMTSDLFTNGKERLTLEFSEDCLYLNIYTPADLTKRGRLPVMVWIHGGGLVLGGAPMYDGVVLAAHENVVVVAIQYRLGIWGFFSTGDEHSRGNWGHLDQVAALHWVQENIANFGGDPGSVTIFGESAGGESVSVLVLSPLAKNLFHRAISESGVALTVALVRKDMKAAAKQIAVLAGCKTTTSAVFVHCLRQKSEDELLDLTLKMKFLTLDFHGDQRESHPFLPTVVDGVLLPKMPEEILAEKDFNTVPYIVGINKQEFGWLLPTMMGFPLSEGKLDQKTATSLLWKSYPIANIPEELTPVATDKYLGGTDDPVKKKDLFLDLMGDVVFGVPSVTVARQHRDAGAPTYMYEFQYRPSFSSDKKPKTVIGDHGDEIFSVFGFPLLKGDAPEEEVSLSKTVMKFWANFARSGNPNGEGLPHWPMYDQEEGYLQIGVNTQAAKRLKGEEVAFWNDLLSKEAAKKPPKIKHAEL

[23] = target: Sodium-dependent serotonin transporter (Homo sapiens, UniProt P31645); test: Inhibition of SERT receptor (unknown origin) assessed as binding constant
Chain of Sodium-dependent serotonin transporter (P31645 whole entry): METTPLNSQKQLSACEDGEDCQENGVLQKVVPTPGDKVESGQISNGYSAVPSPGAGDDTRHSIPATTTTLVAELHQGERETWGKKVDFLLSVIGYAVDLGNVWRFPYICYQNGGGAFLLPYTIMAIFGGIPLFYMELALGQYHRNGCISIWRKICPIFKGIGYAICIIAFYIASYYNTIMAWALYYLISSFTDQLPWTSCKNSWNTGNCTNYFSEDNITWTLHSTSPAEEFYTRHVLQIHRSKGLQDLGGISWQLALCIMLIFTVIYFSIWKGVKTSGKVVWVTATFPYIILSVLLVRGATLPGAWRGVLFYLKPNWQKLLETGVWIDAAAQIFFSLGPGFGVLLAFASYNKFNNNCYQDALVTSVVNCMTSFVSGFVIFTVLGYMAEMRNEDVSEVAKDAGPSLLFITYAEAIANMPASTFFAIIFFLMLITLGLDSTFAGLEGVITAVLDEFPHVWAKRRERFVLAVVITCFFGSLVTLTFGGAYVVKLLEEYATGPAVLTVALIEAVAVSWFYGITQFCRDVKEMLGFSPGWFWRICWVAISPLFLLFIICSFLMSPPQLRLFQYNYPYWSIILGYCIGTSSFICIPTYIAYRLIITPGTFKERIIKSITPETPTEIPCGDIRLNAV

[24] = target: T2, Muscarinic acetylcholine receptor M1 (Homo sapiens, UniProt P11229); test: Inhibition of muscarinic M1 receptor (unknown origin) assessed as binding constant
T2 sequence (P11229 whole entry): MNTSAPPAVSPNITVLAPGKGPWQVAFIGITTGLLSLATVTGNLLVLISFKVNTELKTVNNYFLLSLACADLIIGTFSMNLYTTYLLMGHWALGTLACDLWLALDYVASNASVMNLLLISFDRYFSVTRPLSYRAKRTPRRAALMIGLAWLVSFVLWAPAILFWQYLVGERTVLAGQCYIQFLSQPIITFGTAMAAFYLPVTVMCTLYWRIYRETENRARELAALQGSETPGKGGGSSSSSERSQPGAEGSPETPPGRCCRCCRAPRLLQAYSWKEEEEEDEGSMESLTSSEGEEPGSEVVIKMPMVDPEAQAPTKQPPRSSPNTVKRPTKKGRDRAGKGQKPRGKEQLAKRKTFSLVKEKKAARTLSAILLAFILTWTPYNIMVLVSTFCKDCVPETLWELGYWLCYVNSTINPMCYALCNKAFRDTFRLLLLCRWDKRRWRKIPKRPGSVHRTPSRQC

[25] = Plasma protein binding in rat assessed as compound remaining at 5 hrs; assay type: ADME, cell-free
[26] = Distribution coefficient, logD of compound at pH 7.4 by HPLC analysis; assay type: physicochemical; settings: octanol/water
Mus musculus [27] = test: Antiinflammatory activity in C57BL/6J mouse model of ovalbumin/Aspergillus-induced allergic asthma assessed as reduction in recruitment of neutrophils into airway at 10 mg/kg, ip administered 30 mins prior to allergen challenge and measured after 16 days; assay type: functional, organism-based; settings: time 16.0 day
Mus musculus [28] = test: Antiinflammatory activity in C57BL/6J mouse model of ovalbumin/Aspergillus-induced allergic asthma assessed as reduction in recruitment of eosinophils into airway at 10 mg/kg, ip administered 30 mins prior to allergen challenge and measured after 16 days; assay type: functional, organism-based; settings: time 16.0 day
Mus musculus [29] = test: Antiinflammatory activity in C57BL/6J mouse model of ovalbumin/Aspergillus-induced allergic asthma assessed as reduction in recruitment of lymphocytes into airway at 10 mg/kg, ip administered 30 mins prior to allergen challenge and measured after 16 days; assay type: functional, organism-based; settings: time 16.0 day
[30] = Toxicity in Hsd:ICR (CD-1) mouse at 10 micromol/kg, ip; settings: in vivo, dose 10 µmol/kg
[31] = Aqueous solubility of the compound at pH 4; settings: buffer
[32] = target: Kappa-type opioid receptor (Homo sapiens, UniProt P41145); test: Inhibition of KOR (unknown origin) assessed as binding constant
Chain of Kappa-type opioid receptor (P41145 whole entry): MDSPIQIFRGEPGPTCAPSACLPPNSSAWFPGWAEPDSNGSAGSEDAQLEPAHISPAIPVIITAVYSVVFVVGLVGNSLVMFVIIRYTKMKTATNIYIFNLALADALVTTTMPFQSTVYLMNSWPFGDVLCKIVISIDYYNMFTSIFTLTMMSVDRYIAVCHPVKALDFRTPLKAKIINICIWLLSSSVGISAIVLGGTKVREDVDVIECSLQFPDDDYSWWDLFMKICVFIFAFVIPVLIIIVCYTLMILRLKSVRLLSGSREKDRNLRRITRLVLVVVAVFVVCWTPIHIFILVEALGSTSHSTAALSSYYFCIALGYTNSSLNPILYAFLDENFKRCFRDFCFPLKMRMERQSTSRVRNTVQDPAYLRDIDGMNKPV

Row | Structure (SMILES) | t1/2 [8] | IC50 (HepG2) | t1/2 [9] | Stability [10] | PPB [11] | half-life [12] | Ki [13] | Stability [14] | Stability [15] | PPB [16] | t1/2 [17] | PPB [18] | half-life [19] | Stability [20] | Drug metabolism [21] | half-life (liver carboxylesterase) | logD ([26]; read-out: logD) | also measured
1 | O=C(O)c1cc(-c2ccc([C@H]3C[C@H]4C[C@@H]3CN4)cc2)c2ccc(-c3ccc(C(F)(F)F)cc3)cc2c1 [listing 1 of 2 here] | – | – | – | – | – | – | – | – | – | – | – | – | – | – | – | – | – | Activity (Mus musculus [1]): Active; Activity (Mus musculus [2]): inactive; Activity (Mus musculus [3]): inactive; Activity (Mus musculus [4]): Active; Activity (Mus musculus [5]): Active; Activity (Mus musculus [6]): Active
2 | O=C(O)c1cc(-c2ccc([C@@H]3C[C@@H]4C[C@H]3NC4=O)cc2)c2ccc(-c3ccc(C(F)(F)F)cc3)cc2c1 | > 16.67 h | 9340 nM | 12.5 h | 100% | 98.89% | 4.59 h | 2100 nM | 74.7% | 74.1% | 99.74% | 1.49 h | 96.18% | 2.11 h | 59.3% | – | – | – | Activity (Mus musculus [7]): Active
3 | CN(C)C(=O)COC(=O)c1cc(-c2ccc([C@H]3C[C@H]4C[C@@H]3CN4)cc2)c2ccc(-c3ccc(C(F)(F)F)cc3)cc2c1 | – | – | – | – | 99.7% | – | 390 nM | – | – | – | – | – | – | – | 59% | > 72 h | – | Fu [22]: 0%; Ki [23]: > 1000 nM; Ki [24]: > 1000 nM; Fu [25]: 0.72%
4 | CCOC(=O)N1C[C@H]2C[C@@H]1C[C@@H]2c1ccc(-c2cc(C(=O)OCC(=O)N(C)C)cc3cc(-c4ccc(C(F)(F)F)cc4)ccc23)cc1 | – | – | – | – | – | – | – | – | – | – | – | – | – | – | 3% | > 72 h | 6 | Activity (Mus musculus [27]): Active; Activity (Mus musculus [28]): Active; Activity (Mus musculus [29]): Active
5 | O=C(O)c1cc(-c2ccc([C@H]3C[C@H]4C[C@@H]3CN4)cc2)c2ccc(-c3ccc(C(F)(F)F)cc3)cc2c1 [listing 2 of 2 here] | 4.05 h | 11000 nM | 4.67 h | 99.1% | 87.98% | 8.94 h | 710 nM | 82.8% | 100% | 99.76% | 1.52 h | 99.79% | 7.24 h | 100% | – | – | – | logD [26]: 1.9; Activity [30]: Non-Toxic; solubility [31]: 1.22 µg/mL (≈ 2.5 µM)
6 | O=C(O)c1cc(-c2ccc(C3CCNC3)cc2)c2ccc(-c3ccc(C(F)(F)F)cc3)cc2c1 (racemic) | – | – | – | – | – | – | 1200 nM | – | – | – | – | – | – | – | – | – | 1.9 | Ki [32]: > 1000 nM

From ChEMBL document CHEMBL5042543, “Bridged Piperidine Analogues of a High Affinity Naphthalene-Based P2Y14R Antagonist” (J Med Chem, 2022)
